Results published in article PMC11595864, “Design, Synthesis, and Evaluation of Novel Thiazole-Containing Algicides Inspired by Bacillamide A” (Marine Drugs, 2024).
Values after ≈ are worked out from the molar mass of the structure shown.

Key:
S. costatum [1] = assay: Algicidal activity assay, EC50; type: cell-based, Skeletonema costatum; details: Skeletonema costatum; Mean ± SD, n = 3; read-out: EC50 S. costatum
Procedure: (§1) P. minimum, A. pacificum, and S. costatum were purchased from Guangyu Biological Technology Co., Ltd. (Shanghai, China). The algae strain was cultured in F/2 medium ((12 h light: 12 h dark cycle), 20 ± 1 °C, 70 μmol m^−2 s^−1). Purchased algae were transferred to sterile conical flasks for culture; after the algae proliferation was stabilized, the expanded culture was next carried out following standard conditions.
(§2) Copper sulfate and Diuron were used as the positive controls. EC50 values were calculated according to the equation of the quantity–effect relationship in Equation (2) using the Hill model of Graph Pad Prism software (8.0.2). (2) Y=Bottom+(Top-Bottom)/1+10^(Log EC50-X)×Hill Slope
(§3) The X and Y values represent the concentration (mg/L) and response values of the control and experimental groups, respectively. The Top, Bottom, and Hill Slope represent the maximum response, minimum response, and the curve slope, respectively. The EC50 represents half of the maximum effective concentration.

A. pacificum [2] = assay: Algicidal activity assay, EC50; type: cell-based, Alexandrium pacificum; details: Alexandrium pacificum; Mean ± SD, n = 3
Procedure: as §1, §2, §3

P. minimum [3] = assay: Algicidal activity assay, EC50; type: cell-based, Prorocentrum minimum; details: Prorocentrum minimum; Mean ± SD, n = 3; read-out: EC50 P. minimum
Procedure: as §1, §2, §3

A. pacificum [4] = assay: Growth-inhibition rate measurement at 50 mg/L, 24 h; type: cell-based, Alexandrium pacificum; details: Alexandrium pacificum, read-out: inhibition rate against A. pacificum
Procedure: as §1
The stock solutions of bacillamide A and different BDs were prepared in dimethyl sulfoxide (DMSO) with the requisition amount. […] The controls received the same volume of DMSO. The inhibitory activities of bacillamide A, different BDs, and positive controls were screened by 96 well microtiter plates at different concentrations. Inhibition ratios (IRs) of cupric sulfate (50 mg/L, positive control), bacillamide A (50 mg/L), and BDs (50 mg/L) were calculated on algae using Equation (1). (1) IR=Cc0-Cex/Cc0×100%
The CC0 and Cex, respectively, represent the algal densities of the control and experimental groups.

zebrafish = assay: Zebrafish acute toxicity assay; type: in vivo; details: zebrafish
Procedure: Zebrafish acute toxicity of bacillamide A and synthesized BDs were evaluated at 0.1 mg/L, 1 mg/L, and 10 mg/L, respectively. Diuron and CuSO4 were used as positive controls. The commercial zebrafish (body length > 3.0 cm) were domesticated in aerated tap water for 24 h, fed once daily for seven consecutive days, and stopped being fed before the experiment.
4. Acute toxicity table S1.
Compound Concentration Survival percent Acute
aAccording to the Guide for Environmental Safety Assessment of Chemical Pesticides
4 groups and treated with different compounds for 96 h.

PSII in P. minimum = assay: Quantum yield Fv/Fm of PSII; type: cell-based, Prorocentrum minimum; details: 10 mg/L, 72 h, versus negative control
Procedure: (§4) P. minimum, S. costatum, and A. pacificum cells were cultured in F/2 medium. All flasks were cultivated under 12 h of light: 12 h of dark and 70 μmol m^−2 s^−1 at 20 ± 1 °C. […] Finally, the algal cells were collected and diluted in 6 mL of phosphate buffer (pH = 7.8). A small amount of quartz sand was added into the algal cells under ice bath. The obtained homogenate was next poured into a centrifuge tube and centrifuged at 5000 r/min for 25 min at 4 °C. The obtained supernatant was placed in the refrigerator at 4 °C for the next step experiment.
(§5) Fv/Fm values were determined by using AquaPen handheld algae fluorescence meter (Nanjing Mingao Instrument Co., Ltd., Nanjing, China). The algae cells were darkened for 30 min and Fv/Fm values were measured.

PSII in S. costatum = assay: Quantum yield Fv/Fm of PSII; type: cell-based, Skeletonema costatum; details: 10 mg/L, 72 h, versus negative control
Procedure: as §4, §5

P. minimum [5] = assay: MDA level (thiobarbituric acid assay kit); type: cell-based, Prorocentrum minimum; details: 10 mg/L, 72 h, versus control (DMSO)
Procedure: as §4
(§6) The malondialdehyde (MDA) assay kit was purchased from Lvyuandade Biochemical Co, Ltd., Beijing, China. The MDA parameter was monitored according to the procedure provided by the manufacturer. A total of 1 mL of algal extract was mixed with thiobarbituric acid solution (2 mL, 0.6%). The solution was sealed and kept in a boiling water bath for 15 min, followed by being cooled and centrifuged at 4500 r/min for 10 min. The absorbance values of collected supernatant were measured and calculated by the Formula (3) at 600 nm, 532 nm, and 450 nm:MDA content (nmol∙mgprot^−1) = 6.45 × (A532 − A600) − 0.56 × A450(3)

S. costatum [6] = assay: MDA level (thiobarbituric acid assay kit); type: cell-based, Skeletonema costatum; details: 10 mg/L, 72 h, versus control (DMSO)
Procedure: as §4, §6

[7] = system: other microalgae (e.g., diatoms, cyanobacteria, green algae); set-up: method as in doi:10.1016/j.tetlet.2003.08.115, PMID 17454826; details: cited from earlier work
Salmonella choleraesuis = system: Salmonella choleraesuis; set-up: method as in PMID 32483303; details: cited from earlier work
Vibrio cholerae = system: Vibrio cholerae; set-up: method as in PMID 32483303; details: cited from earlier work
Alternaria sp. = system: Alternaria sp.; set-up: method as in PMID 32483303; details: cited from earlier work

SMILES: CC(=O)c1nc(C(=O)NCCc2c[nH]c3ccccc23)cs1 [bacillamide A]
- EC50 (S. costatum [1]): 2.51 ± 0.09 µg/mL (≈ 8.01 µM)
- EC50 (A. pacificum [2]): 2.17 ± 0.31 µg/mL (≈ 6.92 µM)
- EC50 (P. minimum [3]): 3.93 ± 0.28 µg/mL (≈ 12.5 µM)
- inhibition at 50 µg/mL (A. pacificum [4]): 55.3%
- Survival percent (zebrafish; 0.1 mg/L, 0h): 100
- Survival percent (zebrafish; 0.1 mg/L, 24h): 100
- Survival percent (zebrafish; 0.1 mg/L, 48h): 100
- Survival percent (zebrafish; 0.1 mg/L, 72h): 100
- Survival percent (zebrafish; 0.1 mg/L, 96h): 100
- Survival percent (zebrafish; 1 mg/L, 0h): 100
- Survival percent (zebrafish; 1 mg/L, 24h): 100
- Survival percent (zebrafish; 1 mg/L, 48h): 87
- Survival percent (zebrafish; 1 mg/L, 72h): 83
- Survival percent (zebrafish; 1 mg/L, 96h): 83
- Survival percent (zebrafish; 10 mg/L, 0h): 100
- Survival percent (zebrafish; 10 mg/L, 24h): 100
- Survival percent (zebrafish; 10 mg/L, 48h): 100
- Survival percent (zebrafish; 10 mg/L, 72h): 100
- Survival percent (zebrafish; 10 mg/L, 96h): 100
- Acute toxicity (zebrafish; class by GB/T31270.12, LC50 (96 h)): low (LC50 (96 h) > 10 mg/L, low toxicity)
- decrease of Fv/Fm of PSII in P. minimum (PSII in P. minimum): 2 fold
- decrease of quantum yield Fv/Fm of PSII in S. costatum (PSII in S. costatum): 4 fold
- increase of MDA levels in P. minimum (P. minimum [5]): 2.0 fold
- increase of MDA levels in S. costatum (S. costatum [6]): 2.6 fold
- algicidal activities against other microalgae [7]: did not display algicidal activities
- antibacterial activity (Salmonella choleraesuis): moderate antibacterial activity
- antibacterial activity (Vibrio cholerae): moderate antibacterial activity
- antifungal activity (Alternaria sp.): slight antifungal activity
